Assay [1] concerns the target T1, FicD^L258D (Homo sapiens, UniProt Q9BVA6, L258D).
T1 construct: soluble ER luminal domain (residues 105 to 458) of wild-type human FicD and three mutants; 6xHis-Sumo (N, cleaved yes); made in house; host or cells: Rosetta(DE3) E. coli
T1 sequence (Q9BVA6 105-458 L258D): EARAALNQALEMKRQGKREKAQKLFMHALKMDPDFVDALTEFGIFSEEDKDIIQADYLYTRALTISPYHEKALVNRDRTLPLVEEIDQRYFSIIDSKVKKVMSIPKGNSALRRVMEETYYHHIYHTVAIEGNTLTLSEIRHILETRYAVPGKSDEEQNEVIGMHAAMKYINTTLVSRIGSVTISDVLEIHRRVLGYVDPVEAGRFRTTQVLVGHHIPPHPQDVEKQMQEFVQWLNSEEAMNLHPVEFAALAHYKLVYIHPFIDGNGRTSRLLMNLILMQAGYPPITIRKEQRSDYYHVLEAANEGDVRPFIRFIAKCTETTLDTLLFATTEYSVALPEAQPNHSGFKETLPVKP
In words: Differential scanning fluorimetry (DSF) thermal shift with FicD^L258D. It is filed as binding. The following applies: FicD^L258D, 5 mM MgCl2; read-out: EC50 of DSF dose-response (ΔTm). The procedure: Differential Scanning Fluorimetry
Thermal shift assays were performed in Biorad CfX384 Touch Real-Time PCR Detection System […]
Reactions contained 50mM HEPES pH 7.4, 200mM NaCl, 200mM KCl, 200uM DTT, 5X Invitrogen Sypro Orange (Cat no. S6650), 8-9μM protein, and indicated nucleotide, cofactor, or small molecule in a total volume of 20uL. For every experiment ‘no protein’ controls were also included with the same reaction conditions. All reactions were performed in technical triplicates. Sealed plates containing reaction mixes were centrifuged for 1-5 min at 1000 RPM prior to temperature scanning (FRET channel), which was performed from 6°C […]
DSF data was analyzed with traditional methods automated in a Python package (https://pypi.org/project/instawell/). Briefly, for each temperature, the RFU values of technical triplicates are averaged. For each timepoint, the background fluorescence was subtracted using the RFU values of the ‘no protein’ control. […]
calculated. The melting temperature (Tm) is defined as the first derivative peak value. Data
(In DSF a fluorescence change marks the thermal transition of the protein.)

For assay [2], the target named is T1, FicD^L258D. In words: Isothermal titration calorimetry (ITC) with Δ104hFicD^L258D. It is filed as binding. Particulars: 4 mM MgCl2, 20 °C, 1σ error interval in parenthesis. From the text:
To further support this notion, we used Isothermal Titration Calorimetry (ITC) to determine the Kd of FPP binding. […] In these experiments, the interaction between FPP and Mg^2+ generated endothermic peaks that interfered with detecting the interaction between FPP, Mg^2+, and FicD (Fig. 3, Upper). The stoichiometry of FPP binding to FicD was consistently <0.85, which may indicate that Mg^2+ was not saturating. Because the endothermic interaction between Mg^2+ and FPP limited the quantity of MgCl2 we could add, the measured Kd could be larger than the true value.
Fig. 3. ITC with FicD and Farnesyl-pyrophosphate. Representative ITC thermogram for FPP binding to Δ104hFicD^L258D (Upper). […] Dissociation constants (Kd) of individual replicates and global fitting of triplicate isotherms are reported with 1σ error intervals in parenthesis. TEXT PRINTED IN THE PICTURE: no label printed: Kd (nM): 32.3 (15.6, 54.9) (Replicate 1); Kd (nM): 25.6 (10.1, 47.7) (Replicate 2); Kd (nM): 45.2 (29.4, 68.8) (Replicate 3); Kd (nM): 60.3 (23.1, 126.3) (Global) DOUBTS OF THE COPYIST ABOUT THIS PICTURE: The picture prints no substance label; the table rows are replicates and a global fit of one measurement, so all four Kd values are given under one unlabeled substance. […]
Isothermal Titration Calorimetry
Proteins were dialyzed against 25mM HEPES pH 7.4/100mM KCl/10% glycerol prior to titration.
Dialyzed proteins were then spun down at 21,000G for 15 minutes at 4C to remove trace insoluble material. The protein concentration was measured spectrophotometrically and then diluted to working concentration with 25mM HEPES pH 7.4/100mM KCl/10% glycerol. MgCl2 was added to proteins to a final concentration of 4mM. ITC experiments were performed in a Micro-Cal PEAQ-ITC (Malvern Panalytical, Worcestershire, UK) calorimeter with a stirred 206.2 μL reaction cell held at 20 °C. 250μM FPP was titrated into 25uM Δ104hFicL258D with 750rpm stirring. The first injection was 0.5 μL, followed by twenty 1.9 μL injections. ITC data were integrated and baseline corrected using NITPIC 2.1.5 (10, 11). Integrated data was globally analyzed in SEDPHAT 15.b (12) using a model considering a single class of binding sites. […]
10% Lithium dodecyl sulfate, 50% glycerol, 50mM DTT, 0.05% Bromophenol blue) and then heated […]
For deAMPylation assays with FicD and BiP, Δ26hBiPT229A was in-vitro AMPylated by […]
5mM MgCl2, 500uM ATP, 0.5% CHAPS, 1mM DTT. After one hour of incubation at 30-37C, the entire reaction mix was transferred into an Amicon 0.5mL 50kDa MWCO concentrator (cat no.
7.4/150mM NaCl/10% glycerol/1mM DTT was added to the concentrated AMPylation reaction and then spun down again at 14,000 x g at 4C for 5-10 minutes. This step was repeated four times to buffer exchange AMPylated Δ26hBiPT229A.
Δ104hFicDWT and Δ26hBiPT229A-AMP were combined at a ratio of 1:80 in buffer containing 25mM HEPES pH 7.4, 100mM KCl, 5mM MgCl2, 1mM DTT and the indicated small molecule where applicable. Reactions were incubated at 37C for 1 hour and stopped by the addition EDTA. 5X SDS sample buffer (250mM Tris pH 6.8, 10% Lithium dodecyl sulfate, 50% glycerol, 50mM DTT, 0.05% Bromophenol blue) was then added to the reactions and reactions were heated for 5 minutes at […]
For in-vitro AMPylation assays with VopS and CDC42, Δ30VopS and GST-CDC42 – provided by a previous lab member – were combined at a 1:80 molar ratio in 50mM Tris pH 7.4/100mM NaCl/1mM DTT in the presence of GPP or FPP, where applicable. […]
In general terms: ITC needs no label: the signal is the heat of the interaction.

Where “and” joins values, the source holds several entries; their conditions need not be identical. Equal entries are not always repeated. Where two headings read alike, the source gives them in different places.

The term EC50 denotes the concentration at which the effect is half-maximal. A word on the Kd: it is the constant that tells how readily two partners part at equilibrium.

On to `CC(C)=CCC/C(C)=C/CC/C(C)=C/CO[P@@](=O)(O)OP(=O)(O)O` (stereo in doubt) [FPP, farnesyl-pyrophosphate], for which the EC50 at FicD^L258D [1] came to 9.6 µM. The Kd on FicD^L258D [2] (read-out: Kd (ITC), Replicate 1) is 0.0323 µM; on FicD^L258D [2] (read-out: Kd (ITC), Replicate 2), 0.0256 µM; at FicD^L258D [2] (read-out: Kd (ITC), Replicate 3), 0.0452 µM; on FicD^L258D [2] (read-out: Kd (ITC), global fitting of triplicate isotherms), ~0.06 µM and 0.0603 µM and 0.06 µM.

Source of the values: article PMC12974487, “Inhibition of FicD-mediated AMPylation and deAMPylation by isoprenoid diphosphates” (Proceedings of the National Academy of Sciences of the …, 2026).
